Data published in paper PMC10447463, “Data-mining unveils structure–property–activity correlation of viral infectivity enhancing self-assembling peptides” (Nature Communications, 2023).
Several values for one entry are separate records, joined by “and”; a condition that tells them apart may be missing. Equal entries are not always repeated. Where two headings read alike, the source gives them in different places.

How the values were obtained:
[1] = Turbidity, derived count rate of scattered light; format: physicochemical; conditions: for Log Count Rate: log of derived count rate
Summary of the method: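 Samples: 1 mg/mL in PBS pH 7.4 (from DMSO), 1 d at RT, then diluted in 1 mM KCl immediately before measurement. Triplicates, two independent runs averaged.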

[2] = Zeta-potential measurement; format: physicochemical; conditions: for Zeta-pot. / mV: zeta potential of peptide, Fig S15 source data
Summary of the method: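 In this measurement, peptides aggregated for a day at RT in phosphate-buffered saline (pH 7.4, 1 mg/mL) are diluted into 1 mM potassium chloride, and the electrophoretic mobility is translated into zeta potential by Smoluchowski's relation.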

[3] = β-sheet content by ATR-FT-IR; format: physicochemical
Summary of the method: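 Using ATR FT-IR (diamond, 2 cm^-1, 64 scans), lyophilized 1 mg/mL PNF samples gave β-sheet content by a published calculation. Fluorescamine signals of 3 kDa filtrates relative to unfiltered samples, normalised to DMSO as 1, yielded CR in percent.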

[4] = system: HIV-1 infection of TZM-bl cells; experiment: HIV-1 infectivity enhancement assay, β-galactosidase luminescence; format: cell-based; conditions: for Log10 Inf. rel. to EF-C: log10 of HIV-1 infection of TZM-bl cells relative to EF-C, Fig S15 source data, asymmetric std dev errors
[5] = category 1 or 0 from count rate, key not given
[6] = derived count rate of scattered light, mean, std deviation in next column
[7] = derived count rate of scattered light, mean, std deviation in separate column
[8] = Feb2021, 1.3 µM value relative to virus only (0 µM)
[9] = Feb2021, Log10 of infectivity relative to EF-C
[10] = Feb2021, n-fold enhancement relative to EF-C
[11] = Feb2021, n-fold infectivity relative to EF-C
[12] = Feb2021, unrounded values of the 1.3 µM column
[13] = Feb2021 run, infectivity n-fold relative to virus alone
[14] = Feb2021 run, log10 of infectivity relative to EF-C
[15] = Feb2021 run, n-fold infectivity relative to EF-C
[16] = infectivity class (low / medium / high) of each library peptide, main list in c1-c6, same classes repeated in sub-lists of sequences containing the hydrophobicity/charge patterns P+,H0,P+,H0,P0,H0,P0, P+,H0,P0,H0,P0,H0,P0, P+,H0,P0,H0
[17] = Feb2021, log10 of infectivity relative to EF-C

Substance | Zeta Count Rate Category ([1]; category 1/0, no key printed) | Zeta Count Rate Category [1, 5] | Zeta Count Rate / kcps [1, 6] | Zeta Count Rate / kcps [1, 7] | Zeta category ( +1 = if > 4 mV;-1 = if < -4 mV; 0 = -4mV to 4 mV) [2] | Zeta category ( +1 = if > 4 mV;-1 = if < -4 mV; 0 = -4mV to 4 mV) ([2]; category from zeta potential) | Zeta Pot. / mV ([2]; mean, Std Zeta in next column) | Zeta Pot. / mV ([2]; mean, Std in separate column) | Zeta-pot. / mV [2] | FTIR ß-sheet content/ % [3] | FTIR ß-sheet content/ % ([3]; ATR-FT-IR) | n-fold to virus (Feb2021) [4, 8] | Log10 of Rel to EFC (Feb2021) [4, 9] | Rel-to EFC (Feb-2021) [4, 10] | Rel-to EFC (Feb-2021) [4, 11] | Absolute Infectivity / RLU /s (Feb2021) [4, 12] | n-fold to virus (Feb2021) [4, 13] | Log10 of Rel to EFC (Feb2021) [4, 14] | infectivity [4, 16] | Log10 Inf. rel. to EF-C [4] | further results
KFKFQFNM [BL6a] | 1 | 1 | 131.8 kcps | 131.8 kcps | 1 (+1 = if > 4 mV) | 1 (+1 = if > 4 mV) | 13.9 mV | 13.9 mV | 13.9 mV | 40.31% | 40% and 40.31% | 19.81 | -0.3265 | 0.4715 | 0.4715 | 7067 RLU /s | 19.81 | -0.3265 | medium | -0.3265 | Rel-to EFC (Feb-2021) [4, 15]: 0.4715
RGDCKFKFQF [TM64/ CN15] |  | 1 | 1338 kcps |  | 1 (+1 = if > 4 mV) | 1 (+1 = if > 4 mV) | 13.87 mV |  | 13.87 mV |  | 47% and 46.68% |  | -0.8186 | 0.1519 | 0.1519 |  |  |  | medium | -0.8186 | Zeta Count Rate Category ([1]; category 1 / 0, no key given): 1; Zeta Count Rate / kcps ([1]; derived count rate of scattered light): 1338 kcps; Zeta Pot. / mV [2]: 13.87 mV; Absolute Infectivity / RLU /s (Feb2021) ([4]; Feb2021, figures match the 1.3 µM column): 4637 RLU /s; n-fold to virus (Feb2021) ([4]; Feb2021, infectivity relative to virus only): 6.381
KIKIQINM [JGB2] | 1 | 1 | 262.1 kcps | 262.1 kcps | 1 (+1 = if > 4 mV) | 1 (+1 = if > 4 mV) | 8.51 mV | 8.51 mV | 8.51 mV | 41% | 41% | 15.24 | -0.4404 | 0.3627 | 0.3627 | 2947 RLU /s | 15.24 | -0.4404 | medium | -0.4404 | Rel-to EFC (Feb-2021) [4, 15]: 0.3627
CRFRFQF [CN10] | 1 |  | 390.5 kcps |  | 0 (0 = -4mV to 4 mV) |  | -2.097 mV |  | -2.097 mV |  | 39.77% | 14.45 |  |  | 0.3439 | 7508 RLU /s |  |  | medium | -0.4635 | Log10 of Rel to EFC (Feb2021) [4, 17]: -0.4635
CSISIQI [TM141] | 1 |  | 10241.1 kcps |  | -1 (-1 = if < -4 mV) |  | -25.93 mV |  | -25.93 mV |  | 58.57% | 2.35 |  |  | 0.05593 | 3087 RLU /s |  |  |  | -1.252 | Log Count Rate ([1]; Fig S8 panels A, C, asymmetric log errors): 4.01; Log Count Rate ([1]; Fig S8 panels B, D): 4.01; Count Rate ([1]; Fig S8 panels B, D, turbidity, derived count rate of scattered light): 10241.1; Log10 of Rel to EFC (Feb2021) [4, 17]: -1.252; Rel-to EFC ([4]; Fig S8 panels B, D, infectivity enhancement relative to EF-C): 0.05593; n-fold to virus ([4]; Fig S8 panels B, D, infectivity n-fold relative to virus alone): 2.35; infectivity ([4]; infectivity class (low / medium / high) of the peptide in the sequence-pattern analysis, Fig. S22-A4, class limits not given): low
